{
  "source": "patent US11307204B2",
  "about": "“5-ALA for detection of brain tumors” (PIOMA, INC., priority 2012, dated 2022)",
  "tested_on": "U87 cells",
  "assay": "Flow cytometry detection of PPIX in U87 cells exposed to 5-ALA",
  "format": "cell-based",
  "conditions": "serum-free, 5-ALA 250 μg/ml, excitation 406 nm, filter 610/20",
  "description": "U87 cells representative of GBM tumors grown in T-75 flasks, in the absence of serum, were exposed to 5-aminolevulinic acid ([…]; 250 μg/ml) for 4 or 24 hours. Following exposure, cells were subjected to fluorescent excitation in a LSRII flow cytometer with an excitation at 406 nm violet wave length. Filter specifications were set at either 450/50, or set at 610/20 for the detection of protoporphyrin IX (PPIX).",
  "data": [
    {"molecule": "NCC(=O)CCC(=O)O", "note": "[5-ALA, 5-aminolevulinic acid]", "values": [
      {"measurement": "mean fluorescence index (MFI), PPIX", "setting": "4 hours", "result": "MFI increased"},
      {"measurement": "mean fluorescence index (MFI), PPIX", "setting": "24 hours", "result": "MFI increased"}
    ]}
  ]
}
